Test results: paper PMC10714400, “Antimicrobial Peptide–Peptoid Hybrids with and without Membrane Disruption” (ACS Infectious Diseases, 2023)
Values after ≈ are worked out from the molar mass of the structure shown. Where a SMILES comes first, the peptide text is derived from it. [ ]: non-standard residue; d: D form. Nleu = CC(C)CNCC(=O)O; Nlys = NCCCCNCC(=O)O

How the values were obtained:
[1] = Circular dichroism, α-helical content; type: physicochemical; conditions: 0.1 mg/mL; for CD %α with 5 mM DPC: 10 mM phosphate buffer pH 7.4, 5 mM DPC; for CD %α with 20% TFE: 10 mM phosphate buffer pH 7.4, 20% TFE
[2] = test system: human red blood cells (hRBC); experiment: Minimum hemolytic concentration (MHC); type: cell-based
From the text: We also measured minimal hemolysis concentrations (MHC) on human red blood cells by serial 2-fold dilution as an indication of toxicity against eukaryotic cells (Table 1).

S. aureus COL (MRSA) = test system: S. aureus COL (MRSA)
Procedure: (§1) Antimicrobial activity was assayed for all the peptide–peptoids against P. aeruginosa PAO1, K. pneumoniae NCTC418, E. coli W3110, A. baumannii ATCC 19606, methicillin-resistant S. aureus COL (MRSA), and for selected peptides on P. aeruginosa PA14 and the polymyxin-B-resistant derivatives PA14 4.13, PA14 4.18, PA14 2P4, as well as the clinical isolates ZEM-1A and ZEM9A, K. pneumoniae OXA-48, S. aureus Newman, Enterobacter cloacae, Stenotrophomonas maltophilia, Burkholderia cenocepacia, and Staphylococus epidermidis. To determine the Minimal Inhibitory Concentration (MIC), the Broth Microdilution method was used.[72] A colony of bacteria was picked and grown in LB medium overnight at 37 °C.
(§2) To each well was finally added 4 μL of the diluted bacterial suspension (see above), corresponding to approximately 5 × 10^5 CFU. For each test, two columns of the plate were kept for sterility control (medium only), growth control (medium with bacterial inoculum, no compound). The positive control, Polymyxin B (starting with a concentration of 16 μg/mL) in MH medium with bacterial inocula, was introduced in the two lines of the plate. The plates were incubated at 37 °C for ca. 18 h under static conditions. Next, 15 μL of 3-(4,5-dimethylthiazol-2-yl)-2,5-diphenyltetrazolium bromide (MTT)[73] (1 mg/mL in sterilized MilliQ deionized water) were added to each well, and the plates were incubated for 20–30 min at room temperature. The minimal inhibitory concentration (MIC) was defined as the lowest concentration of the compound that inhibits the visible growth of the tested bacteria (yellow) with the unaided eye.

E. coli W3110 = test system: E. coli W3110
Procedure: as §1, §2

A. baumannii ATCC19606 = test system: A. baumannii ATCC19606
Procedure: as §1, §2

K. pneumoniae NCTC418 = test system: K. pneumoniae NCTC418
Procedure: as §1, §2

PA14 2P4 (pmrB) = conditions: CSV; […] MH at pH 8.5
Procedure: as §1, §2

PA14 4.18 (pmrB) = conditions: […] MH at pH 8.5; for MIC P. aeruginosa PA14 4.18, […] MH at pH 8.5: CSV
Procedure: as §1, §2

PA14 4.13 (phoQ) = conditions: […] MH at pH 8.5; for MIC P. aeruginosa PA14 4.13, […] MH at pH 8.5: CSV
Procedure: as §1, §2

P. aeruginosa PAO1 = test system: P. aeruginosa PAO1
Procedure: as §1, §2

P. aeruginosa PA14 = conditions: Table S3; […] MH at pH 8.5, 16-20 hours at 37 °C
Procedure: as §1
as §2, with “The plates were incubated at 37 °C for ca. 18 h under static conditions.” left out

S. aureus Newman = conditions: Table S3; […] MH at pH 8.5
Procedure: as §1
as §2, with “The plates were incubated at 37 °C for ca. 18 h under static conditions.” left out

In the case of `CC(C)C[C@H](NC(=O)[C@H](CCCCN)NC(=O)[C@@H](N)CCCCN)C(=O)N[C@@H](CC(C)C)C(=O)N[C@@H](CCCCN)C(=O)N(CC(=O)N(CC(=O)N(CCCCN)CC(=O)N(CC(=O)N(CC(=O)N(CC(N)=O)CC(C)C)CC(C)C)CC(C)C)CC(C)C)CC(C)C` [EB4, KKLLKllklll] (H-KKLLK[Nleu][Nleu][Nlys][Nleu][Nleu][Nleu]-NH2), the “CD %α with 5 mM DPC” value ([1]; DichroWeb, Contin-LL) is reported as 9%, the “CD %α with 20% TFE” value ([1]; DichroWeb, Contin-LL) is reported as 11% and the “CD %α with 5 mM DPC” value ([1]; Table S2) is reported as 9%. For the same molecule, the “CD %α with 20% TFE” value ([1]; Table S2) was 11%, the Hemolysis [2] was “none of them showed any measurable hemolysis” and the MHC [2] was >2000 µg/mL. For the same molecule, the “MIC S. aureus COL (MRSA), full MH at pH 7.4” value (S. aureus COL (MRSA); COL, 4 h, pH 7.4) was >32 ug/mL, the “MIC S. aureus COL (MRSA) […] 7.4” value (S. aureus COL (MRSA); Table S2, […] MH, pH 7.4) was 32 µg/mL (≈ 24.2 µM) and the “MIC S. aureus COL (MRSA) Full MH 7.4” value (S. aureus COL (MRSA); Table S2, full MH, pH 7.4) was > 32 µg/mL. For the same molecule, the “MIC S. aureus COL (MRSA) Full MH 8.5” value (S. aureus COL (MRSA); Table S2, full MH, pH 8.5) was 16 µg/mL (≈ 12.1 µM), the “MIC E. coli W3110, […] MH at pH 7.4” value (E. coli W3110; CSV) was 8 ug/mL and the “MIC E. coli W3110, full MH at pH 7.4” value (E. coli W3110; CSV) was >32 ug/mL. For the same molecule, the “MIC E. coli W3110, full MH at pH 8.5” value (E. coli W3110; CSV) was 8 ug/mL, the “MIC E. coli W3110 […] 7.4” value (E. coli W3110; Table S2, […] MH, pH 7.4) was 8 µg/mL (≈ 6.05 µM) and the “MIC E. coli W3110 […] 8.5” value (E. coli W3110; Table S2, […] MH, pH 8.5) was 2 µg/mL (≈ 1.51 µM). For the same molecule, the “MIC E. coli W3110 Full MH 7.4” value (E. coli W3110; Table S2, full MH, pH 7.4) was > 32 µg/mL, the “MIC E. coli W3110 Full MH 8.5” value (E. coli W3110; Table S2, full MH, pH 8.5) was 8 µg/mL (≈ 6.05 µM) and the “MIC A. baumannii ATCC19606, full MH at pH 7.4” value (A. baumannii ATCC19606; ATCC19606, 4 h, pH 7.4) was >32 ug/mL. For the same molecule, the “MIC A. baumannii ATCC19606 […] 7.4” value (A. baumannii ATCC19606; Table S2, […] MH, pH 7.4) was 32 µg/mL (≈ 24.2 µM), the “MIC A. baumannii ATCC19606 […] 8.5” value (A. baumannii ATCC19606; Table S2, […] MH, pH 8.5) was 16 µg/mL (≈ 12.1 µM) and the “MIC A. baumannii ATCC19606 Full MH 7.4” value (A. baumannii ATCC19606; Table S2, full MH, pH 7.4) was > 32 µg/mL. The “MIC A. baumannii ATCC19606 Full MH 8.5” value (A. baumannii ATCC19606; Table S2, full MH, pH 8.5) was 16 µg/mL (≈ 12.1 µM), the “MIC K. pneumoniae NCTC418, full MH at pH 7.4” value (K. pneumoniae NCTC418; NCTC418, 4 h, pH 7.4) was >32 ug/mL and the “MIC K. pneumoniae NCTC418 […] 7.4” value (K. pneumoniae NCTC418; Table S2, […] MH, pH 7.4) was > 32 µg/mL. For the same molecule, the “MIC K. pneumoniae NCTC418 […] 8.5” value (K. pneumoniae NCTC418; Table S2, […] MH, pH 8.5) was 32 µg/mL (≈ 24.2 µM), the “MIC K. pneumoniae NCTC418 Full MH 7.4” value (K. pneumoniae NCTC418; Table S2, full MH, pH 7.4) was > 32 µg/mL and the “MIC K. pneumoniae NCTC418 Full MH 8.5” value (K. pneumoniae NCTC418; Table S2, full MH, pH 8.5) was 16 µg/mL (≈ 12.1 µM). For the same molecule, the “MIC P. aeruginosa PA14 2P4, […] MH at pH 8.5” value (PA14 2P4 (pmrB)) was 16 ug/mL, the “MIC P. aeruginosa PA14 4.18, […] MH at pH 8.5” value (PA14 4.18 (pmrB)) was 24 ug/mL and the “MIC P. aeruginosa PA14 4.18” value (PA14 4.18 (pmrB); Table S3) was 16 to 32 µg/mL. For the same molecule, the “MIC P. aeruginosa PA14 4.13, […] MH at pH 8.5” value (PA14 4.13 (phoQ)) was 8 ug/mL, the “MIC P. aeruginosa PAO1, full MH at pH 7.4” value (P. aeruginosa PAO1; PAO1, 4 h, pH 7.4) was >32 ug/mL and the “MIC P. aeruginosa PAO1 […] 8.5” value (P. aeruginosa PAO1; Table S2, […] MH, pH 8.5) was 4 µg/mL (≈ 3.03 µM). The “MIC P. aeruginosa PAO1 Full MH 7.4” value (P. aeruginosa PAO1; Table S2, full MH, pH 7.4) was > 32 µg/mL, the “MIC P. aeruginosa PA14” value (P. aeruginosa PA14) was 4 µg/mL (≈ 3.03 µM) and the “MIC S. aureus Newman” value (S. aureus Newman) was 8 µg/mL (≈ 6.05 µM).

With `CC(C)CN(CC(N)=O)C(=O)CN(CC(C)C)C(=O)CN(CC(C)C)C(=O)[C@H](CCCCN)NC(=O)CN(CC(C)C)C(=O)CN(CC(C)C)C(=O)[C@H](CCCCN)NC(=O)CN(CC(C)C)C(=O)CN(CC(C)C)C(=O)[C@H](CCCCN)NC(=O)[C@@H](N)CCCCN` [EB8, KKllKllKlll] (H-KK[Nleu][Nleu]K[Nleu][Nleu]K[Nleu][Nleu][Nleu]-NH2) the Hemolysis [2] was “none of them showed any measurable hemolysis”, the MHC [2] was >2000 µg/mL and the “MIC S. aureus COL (MRSA), full MH at pH 7.4” value (S. aureus COL (MRSA); COL, 4 h, pH 7.4) was >32 ug/mL. The “MIC S. aureus COL (MRSA), full MH at pH 8.5” value (S. aureus COL (MRSA); COL, 4 h, pH 8.5) was 16 ug/mL, the “MIC E. coli W3110, […] MH at pH 7.4” value (E. coli W3110; CSV) was 8 ug/mL and the “MIC E. coli W3110, […] MH at pH 8.5” value (E. coli W3110; CSV, […] MH at pH 8.5) was 3 ug/mL. The “MIC E. coli W3110, full MH at pH 7.4” value (E. coli W3110; CSV) was >32 ug/mL, the “MIC E. coli W3110, full MH at pH 8.5” value (E. coli W3110; CSV) was 8 ug/mL and the “MIC E. coli W3110 […] 8.5” value (E. coli W3110; Table S2, […] MH, pH 8.5) was 2 to 4 µg/mL. The “MIC E. coli W3110 […]” value (E. coli W3110; diluted MH ([…] MH, pH 8.5) per Table 1 footnote b, 16–20 h at 37 °C) was 8 µg/mL (≈ 6.05 µM), the “MIC E. coli W3110 Full” value (E. coli W3110; full MH, pH 7.4, 16–20 h at 37 °C) was >32 µg/mL and the “MIC A. baumannii ATCC19606, full MH at pH 7.4” value (A. baumannii ATCC19606; ATCC19606, 4 h, pH 7.4) was >32 ug/mL. For the same molecule, the “MIC A. baumannii ATCC19606, full MH at pH 8.5” value (A. baumannii ATCC19606; ATCC19606, 4 h, pH 8.5) was 16 ug/mL, the “MIC K. pneumoniae NCTC418, full MH at pH 7.4” value (K. pneumoniae NCTC418; NCTC418, 4 h, pH 7.4) was >32 ug/mL and the “MIC K. pneumoniae NCTC418, full MH at pH 8.5” value (K. pneumoniae NCTC418; NCTC418, 4 h, pH 8.5) was 16 ug/mL. The “MIC P. aeruginosa PA14 2P4, […] MH at pH 8.5” value (PA14 2P4 (pmrB)) was 32 ug/mL, the “MIC P. aeruginosa PA14 4.18, […] MH at pH 8.5” value (PA14 4.18 (pmrB)) was 32 ug/mL and the “MIC P. aeruginosa PA14 4.13, […] MH at pH 8.5” value (PA14 4.13 (phoQ)) was 24 ug/mL. For the same molecule, the “MIC P. aeruginosa PA14 4.13” value (PA14 4.13 (phoQ); Table S3) was 16 to 32 µg/mL, the “MIC P. aeruginosa PAO1, full MH at pH 7.4” value (P. aeruginosa PAO1; PAO1, 4 h, pH 7.4) was >32 ug/mL and the “MIC P. aeruginosa PAO1, full MH at pH 8.5” value (P. aeruginosa PAO1; PAO1, 4 h, pH 8.5) was 16 ug/mL.
